Results as given in patent publication US20250122171A1, “Substituted Amine Compounds, Compositions and Methods of Use” (Deep Apple Therapeutics, Inc., priority 2023, published 2025).

Assays:
Type in all cases: cell-based
hERG channel = biological target: T1, hERG channel (Homo sapiens, UniProt Q12809); test: hERG Safety Evaluation by Manual Patch-Clamp System; conditions: hERG-T-Rex 293 cells, whole cell patch-clamp at 35° C.
T1 construct: host or cells: hERG-T-Rex 293 (HEK 293), doxycycline-induced
T1 sequence (Q12809 whole entry): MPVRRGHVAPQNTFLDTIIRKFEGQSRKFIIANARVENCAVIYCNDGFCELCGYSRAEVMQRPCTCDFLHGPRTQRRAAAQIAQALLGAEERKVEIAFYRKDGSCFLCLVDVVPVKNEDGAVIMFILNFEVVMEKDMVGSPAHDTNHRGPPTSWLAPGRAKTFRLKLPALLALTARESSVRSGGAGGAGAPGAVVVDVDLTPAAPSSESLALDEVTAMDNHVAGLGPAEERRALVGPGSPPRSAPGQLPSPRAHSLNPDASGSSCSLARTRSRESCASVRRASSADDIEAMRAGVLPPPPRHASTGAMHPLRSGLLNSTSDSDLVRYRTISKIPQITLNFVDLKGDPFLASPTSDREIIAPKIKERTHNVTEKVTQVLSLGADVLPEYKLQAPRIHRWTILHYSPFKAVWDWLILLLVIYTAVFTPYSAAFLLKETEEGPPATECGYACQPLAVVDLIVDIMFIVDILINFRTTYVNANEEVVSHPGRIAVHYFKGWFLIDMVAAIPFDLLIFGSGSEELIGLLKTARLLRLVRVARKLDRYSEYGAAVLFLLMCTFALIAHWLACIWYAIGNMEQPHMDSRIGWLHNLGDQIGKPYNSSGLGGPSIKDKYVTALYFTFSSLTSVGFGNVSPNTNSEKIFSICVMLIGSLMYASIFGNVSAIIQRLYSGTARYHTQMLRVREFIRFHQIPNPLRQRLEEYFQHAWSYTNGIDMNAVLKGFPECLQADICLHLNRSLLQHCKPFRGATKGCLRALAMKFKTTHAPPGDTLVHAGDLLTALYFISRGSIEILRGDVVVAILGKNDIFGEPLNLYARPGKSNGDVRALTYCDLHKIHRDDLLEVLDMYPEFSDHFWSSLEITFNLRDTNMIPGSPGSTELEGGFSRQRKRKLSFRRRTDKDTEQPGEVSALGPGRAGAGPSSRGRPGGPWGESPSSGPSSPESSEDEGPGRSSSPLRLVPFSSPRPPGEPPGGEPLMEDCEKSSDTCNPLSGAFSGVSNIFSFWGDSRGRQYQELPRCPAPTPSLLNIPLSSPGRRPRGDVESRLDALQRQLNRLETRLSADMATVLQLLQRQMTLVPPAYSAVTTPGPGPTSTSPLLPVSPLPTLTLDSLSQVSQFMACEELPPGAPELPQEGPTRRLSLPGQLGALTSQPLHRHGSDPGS
Procedure: A stable BIEK 293 cell line with inducible hERG channel expression (hERG-T-Rex 293, Invitrogen cat #K1236) was cultured in medium containing 85% DMVEM, 10% dialyzed FBS, 0.1 mM NEAA, 25 mM HEPES, 100 U/mL Penicillin-Streptomycin, 5 μg/mL Blasticidin and 400 μg/mL Geneticin. Before the assay, cells were induced with doxycycline at 1 μg/mL for 48 hours. On the experiment day, the induced cells were resuspended and plated onto coverslips at 5×10^5 cells/per 3.5 cm cell culture dish prior to use and cultured in medium without Blasticidin and Geneticin.
Electrophysiology recordings were performed in extracellular solution (ECS) containing (in mM): 132 NaCl, 4 KCl, 3 CaCl2), 0.5 MgCl2, 11.1 D-(+) glucose, and 10 HEPES (pH adjusted to 7.35 with NaOH, osmolarity 285-295 mOsm). Recording pipets contained (in mM) 10 NaCl, 10 KCl, 110 KF, 10 EGTA, and 10 HEPES (pH adjusted to 7.2 with KOH, osmolarity 285-295 mOsm).
Test and positive control (dofetilide) compounds were solubilized in 100% DMSO at 10 mM or 75 mM, respectively. Intermediate dilutions of compounds were prepared by serial dilution in 100% DMSO, after which working solutions were prepared in ECS (final DMSO concentration=0.1-1% v/v for test compounds, and 0.1% for dofetilide). […]
Whole cell recordings of voltage-clamped cells were performed at 35° C., with all working solutions heated to 34° C. in a water bath before administration. Current recordings were collected at 20 kHz with a 10 kHz filter and were compensated for capacitance. Cells were clamped at −60 mV, and leak current was tested at −80 mV for 500 ms. The hERG current was elicited by depolarizing at +30 mV for 4.8 seconds and then the voltage was taken back to −50 mV for 5.2 seconds to remove the inactivation and observe the deactivating tail current. Recordings were continued for 120 seconds to assess current stability. Only stable cells with recording parameters above threshold were used in compound administration experiments. Vehicle control was applied to cells to establish baseline. […] For dose response testing, test compound was applied to the cells cumulatively from low to high concentrations. Dofetilide at concentration of 450 nM was also applied to each cell post-hERG current measurement at the highest concentration of test compound as the internal low control for normalization of percentage inhibition. Dofetilide (5 doses) response was performed as positive hERG inhibition control for each batch of cells.
The following criteria were used to determine data acceptability: 1) Initial seal resistance>1 GΩ; 2) Leak currents<50% of the control peak tail currents at any time; 3) Normal test pulse current waveform (e.g., hERG peak tail) current amplitude greater than prepulse current amplitude and the peak tail amplitude>250 pA; 4) Membrane resistance Rm>500 MΩ; 5) Access resistance (Ra)<15 MΩ; 6) Apparent run-down of peak current<2.5% per min. Percent current inhibition was calculated as (1−(Peak tail currentcompound−Peak tail currentpositive control)/(Peak tail currentBlank vehicle−Peak tail currentpositive control))×100. PatchMaster software was used to extract the peak current from the original data. The dose response curve of test compounds was plotted with % inhibition against the concentration of test compounds using Graphpad Prism 8.0, and the data fit to a sigmoid dose-response curve with a variable slope.

human MRGPRX2 = biological target: T2, human MRGPRX2 (Homo sapiens, UniProt Q96LB1); test: MRGPRX2 Activity Assay (IP-1 HTRF, antagonist mode); conditions: FlpIn TRex-MRGPRX2-HEK293 cells; versus 1 μM Cortistatin-14 agonist; 30 minutes preincubation
T2 construct: expressed in transfected cells; host or cells: FlpIn TRex HEK293 (TRex-MRGPRX2-HEK), doxycycline-induced
T2 sequence (Q96LB1 1-330): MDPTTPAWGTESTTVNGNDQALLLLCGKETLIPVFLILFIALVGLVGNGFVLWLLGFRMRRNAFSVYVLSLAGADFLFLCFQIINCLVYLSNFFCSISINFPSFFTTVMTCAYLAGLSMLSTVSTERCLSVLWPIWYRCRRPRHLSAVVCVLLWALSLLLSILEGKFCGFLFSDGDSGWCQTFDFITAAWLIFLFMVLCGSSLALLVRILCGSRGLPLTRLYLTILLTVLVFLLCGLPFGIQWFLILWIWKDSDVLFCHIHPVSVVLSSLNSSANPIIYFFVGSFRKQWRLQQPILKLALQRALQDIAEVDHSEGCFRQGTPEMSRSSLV
Outline: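 Doxycycline-induced (100 ng/mL, 18-24 h) TRex HEK293 cells stably expressing human MRGPRX2, in HBSS/20 mM HEPES/0.1% BSA/10 mM LiCl. Compounds (top final 30 uM, 1% DMSO) preincubated 30 min, then agonist stimulation 1 h at 37° C without wash. IP-1 accumulation read by HTRF; IC50 from 4-parameter fit.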

LAD-2 cells [1] = test: LAD2 Degranulation Assay (Protocol 1), β-hexosaminidase release; conditions: Homo sapiens, 1 μM Cortistatin-14, 30 minute preincubation, top concentration 3 μM
Procedure: (§1) LAD-2 cells were maintained at 37° C. with 5% CO2 and grown in complete StemPro-34 media supplemented with 1% L-Glutamate, 1% penicillin/streptomycin, and 250 ng/mL human SCF.
On the day of experiment, cells were collected by centrifugation and seeded in 384-well assay plates, at 4,000 cells per well in 10 μl freshly made assay buffer (10 mM HEPES, 130 mM NaCl, 5 mM KCl, 1.8 mM CaCl2), 1.0 mM MgCl2, 5.6 mM glucose, 0.1% BSA, pH=7.40). For dose-response assays, compounds solubilized in 100% DMSO at 30 mM were serially diluted (1:3) first in 100% DMSO, and 2 intermediate dilutions with assay buffer were used to establish a final top concentration of 3 μM (in assay plate). Final DMSO concentration was kept constant at 0.1% across plates for all assays. Cortistatin-14 at 30 mM stock concentration was solubilized in HBSS+0.1% BSA, stored at −20° C. in 5 μl aliquots and discarded after one freeze-thaw cycle. Final concentration of agonist used in both dose-response and single point assays was 1 μM, prepared in assay buffer.
(§2) Antagonist equilibrium was established with 30 minute preincubation, followed by no wash, direct addition, and stimulation of agonist for 30 minutes at 37° C. For detection of β-hexosaminidase activity, assay plates were centrifuged and 5 μl of cell-free supernatant from each assay well was transferred to a black-walled black-bottomed 384-well plate. Substrate solution (1 mM 4-Methylumbelliferyl N-acetyl-β-D-glucosaminide in citrate buffer, pH=4.5, 15 μl) was added to each well and plates were incubated for 1 hour at 37° C. The plate was read on an EnVision XCite plate reader for umbelliferone fluorescence intensity (λex=355 nm, λem=460 nm). Background-subtracted data was analyzed using either GraphPad Prism or a custom Python script to calculate IC50 using either Log[Antagonist] vs. response (4 parameter) nonlinear regression (dose-response assays).

LAD-2 cells [2] = test: LAD2 Degranulation Assay (Protocol 2), β-hexosaminidase release; conditions: Homo sapiens; for IC50: 0.5 μM Cortistatin-14, 2 h preincubation, cells without SCF 18-24 hours, top concentration 3 μM; for activity at 0.25 µM: single point 250 nM, 0.5 μM Cortistatin-14, % control β-hexosaminidase activity
Procedure: as §1
18-24 hours prior to experiment, LAD-2 cells were collected and transferred to growth media without SCF. On the day of experiment, cells were collected by centrifugation and seeded in 384-well assay plates, at 4,000 cells per well in 17 μl freshly made assay buffer (10 mM HEPES, 137 mM NaCl, 2.7 mM KCl, 1.8 mM CaCl2), 1.0 mM MgCl2, 5.6 mM glucose, 0.4 mM NaH2PO4, 0.04% BSA, pH=7.40). For dose-response assays, compounds solubilized in 100% DMSO at 30 mM were serially diluted (1:3) first in 100% DMSO, and 2 intermediate dilutions with assay buffer were used to establish a final top concentration of 3 μM (in assay plate). For single point assays, dilution of DMSO stocks to 250 nM (in assay plate) was performed in the same manner as described for dose-response assays. Final DMSO concentration was kept constant at 0.1% across plates for all assays. Cortistatin-14 at 30 mM stock concentration was solubilized in HBSS+0.1% BSA, stored at −20° C. in 5 μl aliquots and discarded after one freeze-thaw cycle. Final concentration of agonist used in both dose-response and single point assays was 0.5 μM, prepared in assay buffer.
as §2, with “with 2 h” for “with 30 minute”, “[…])” for “15 μl)”, “(dose-response assays) or % control β-hexosaminidase activity (single point” for “(dose-response”

Q: Which “hERG Inhibition (%) @ 1 μM” value (hERG channel) does the source give for `C[C@@H](C(=O)Nc1cn(Cc2ccc(F)cc2F)cn1)N1CCC(F)(F)[C@@H](c2cc[n+]([O-])cc2)C1` (single isomer, unassigned) [Compound 1] here?
A: 10%

Q: And the “hERG Inhibition (%) @ 20 μM” value (hERG channel)?
A: 35%

Q: What about the IC50 (human MRGPRX2) of the same molecule?
A: 0.058 µM

Q: What about the IC50 (LAD-2 cells [1]) of the same molecule?
A: 1.94 µM

Q: What does the source list for `C[C@H](C(=O)Nc1cn(Cc2cc(F)cc(F)c2)cn1)N1CCC(F)(F)[C@@H](c2cc[n+]([O-])cc2)C1` (single isomer, unassigned) [Compound 5]?
A: hERG Inhibition (%) @ 1 μM (hERG channel): 3%; hERG Inhibition (%) @ 20 μM (hERG channel): 35%; IC50 (human MRGPRX2): 0.009 µM; IC50 (LAD-2 cells [1]): 0.014 µM

Q: How did the IC50 (LAD-2 cells [2]) turn out when `C[C@@H](C(=O)Nc1cn2c(n1)CC[C@@H]2c1cc(F)cc(F)c1)N1CCC(F)(F)[C@@H](c2cc[n+]([O-])cc2)C1` (single isomer, unassigned) [Compound 489] was run?
A: 0.0095 µM

Q: And the activity at 0.25 µM (LAD-2 cells [2])?
A: 14%

Q: What about the “hERG Inhibition (%) @ 1 μM” value (hERG channel) of the same molecule?
A: 12%

Q: And the “hERG Inhibition (%) @ 20 μM” value (hERG channel)?
A: 47%

Q: What about the IC50 (human MRGPRX2) of the same molecule?
A: 0.013 µM

Q: For `C[C@@H](C(=O)Nc1nc2cc3c(cc2s1)OCO3)N1CCC(F)(F)[C@@H](c2cc[n+]([O-])cc2)C1` (single isomer, unassigned) [Compound 11], which “hERG Inhibition (%) @ 1 μM” value (hERG channel) is on record?
A: 11%

Q: What about the “hERG Inhibition (%) @ 20 μM” value (hERG channel) of the same molecule?
A: 62%

Q: What about the IC50 (human MRGPRX2) of the same molecule?
A: 0.0037 µM

Q: And the IC50 (LAD-2 cells [1])?
A: 0.012 µM

Q: Which results are given for `C[C@@H](C(=O)Nc1cn2c(n1)CC[C@H]2c1cc(F)cc(F)c1)N1CCC(F)(F)[C@@H](c2ccc(=O)[nH]c2)C1` (single isomer, unassigned) [Compound 494]?
A: IC50 (LAD-2 cells [2]): 0.0069 µM; activity at 0.25 µM (LAD-2 cells [2]): 13%; hERG Inhibition (%) @ 1 μM (hERG channel): 9%; hERG Inhibition (%) @ 20 μM (hERG channel): 54%; IC50 (human MRGPRX2): 0.02 µM
